From publication PMC7558399, “In Vitro Selective Growth-Inhibitory Activities of Phytochemicals, Synthetic Phytochemical Analogs, and Antibiotics against Diarrheagenic/Probiotic Bacteria and Cancer/Normal Intestinal Cells” (Pharmaceuticals, 2020)
Values after ≈ are worked out from the molar mass of the structure shown. Where two headings read alike, the source gives them in different places.

Key:
Type in all cases: cell-based
[1] = tested on: Clostridium perfringens (DSMZ 11778); experiment: microbe, parasite or virus in culture; conditions: DSMZ11778
[2] = tested on: Bifidobacterium animalis spp. lactis (DSMZ 10140); experiment: Broth microdilution MIC, B. animalis spp. lactis; conditions: DSMZ10140; Bifidobacterium animalis spp. lactis; growth inhibited by ≥80%; read-out: MIC
[3] = tested on: Lactobacillus casei (DSMZ 20011); experiment: Broth microdilution MIC, L. casei; conditions: Lacticaseibacillus casei, DSMZ20011; Lactobacillus casei; growth inhibited by ≥80%; read-out: MIC
[4] = tested on: Bifidobacterium bifidum (ATCC 29521); experiment: Broth microdilution MIC, B. bifidum; conditions: ATCC29521, growth inhibited by ≥80%, read-out: MIC
[5] = tested on: Lactobacillus reuteri (CCM 3625); experiment: Broth microdilution MIC, L. reuteri; conditions: Limosilactobacillus reuteri, CCM3625; Lactobacillus reuteri; growth inhibited by ≥80%; read-out: MIC
[6] = tested on: intestinal cancer cells (HT29 and Caco-2); experiment: MTT cytotoxicity assay, mean for intestinal cancer cells; conditions: for IC50 / x¯ -CC ± SD: mean IC50 for intestinal cancer cells: mean of HT29 and Caco-2, >512 replaced with 1024; for IC50: read-out: x¯ -CC ± SD: mean IC50 for intestinal cancer cells; for IC80: read-out: x¯ -CC ± SD: mean IC80 for intestinal cancer cells
[7] = tested on: Clostridium difficile (DSMZ 12056); experiment: microbe, parasite or virus in culture; conditions: Clostridioides difficile, DSMZ12056, Clostridium difficile, read-out: MIC
[8] = tested on: Escherichia coli (ATCC 25922); experiment: Broth microdilution MIC, E. coli; conditions: ATCC25922, growth inhibited by ≥80%, read-out: MIC
[9] = tested on: Vibrio parahaemolyticus (ATCC 17802); experiment: Broth microdilution MIC, V. parahaemolyticus; conditions: ATCC17802, growth inhibited by ≥80%, read-out: MIC
[10] = tested on: Bifidobacterium longum ssp. longum (DSMZ 20219); experiment: Broth microdilution MIC, B. longum ssp. longum; conditions: DSMZ20219; Bifidobacterium longum ssp. longum; growth inhibited by ≥80%; read-out: MIC
[11] = tested on: Enterococcus faecalis (ATCC 29212); experiment: Broth microdilution MIC, E. faecalis; conditions: ATCC29212, growth inhibited by ≥80%, read-out: MIC
[12] = tested on: Caco-2 (ATCC HTB 37) intestinal cancer cells; experiment: MTT cytotoxicity assay, Caco-2; conditions: Homo sapiens, Caco-2, MTT, 72 h; for IC50: read-out: IC50 ± SD; for IC80: read-out: IC80 ± SD (80% inhibitory concentration of proliferation)
[13] = tested on: S. enterica ssp. enterica serovar Typhimurium (ATCC 14028); experiment: Broth microdilution MIC, Salmonella Typhimurium; conditions: Salmonella Typhimurium, growth inhibited by ≥80%, read-out: MIC
[14] = tested on: Bifidobacterium adolescentis (DSMZ 20087); experiment: Broth microdilution MIC, B. adolescentis; conditions: DSMZ20087, growth inhibited by ≥80%, read-out: MIC
[15] = tested on: Bifidobacterium breve (ATCC 15700); experiment: Broth microdilution MIC, B. breve; conditions: ATCC15700, growth inhibited by ≥80%, read-out: MIC
[16] = tested on: Shigella flexneri (ATCC 12022); experiment: microbe, parasite or virus in culture; conditions: ATCC12022
[17] = tested on: E. coli 0175:H7 (NCTC 12900); experiment: microbe, parasite or virus in culture; conditions: Escherichia coli, NCTC12900
[18] = tested on: HT29 (ATCC HTB 38) intestinal cancer cells; experiment: MTT cytotoxicity assay, HT29; conditions: Homo sapiens, HT-29, HT29, MTT, 72 h; for IC50: read-out: IC50 ± SD; for IC80: read-out: IC80 ± SD (80% inhibitory concentration of proliferation)
[19] = tested on: Salmonella enterica ssp. enterica serovar Enteritidis (ATCC 13076); experiment: Broth microdilution MIC, Salmonella Enteritidis; conditions: Salmonella Enteritidis, growth inhibited by ≥80%, read-out: MIC
[20] = tested on: Lactobacillus rhamnosus (CCM 7091); experiment: Broth microdilution MIC, L. rhamnosus; conditions: Lacticaseibacillus rhamnosus, CCM7091; Lactobacillus rhamnosus; growth inhibited by ≥80%; read-out: MIC
[21] = tested on: Listeria monocytogenes (ATCC 7644); experiment: Broth microdilution MIC, L. monocytogenes; conditions: ATCC7644, growth inhibited by ≥80%, read-out: MIC
[22] = tested on: probiotic bacteria (9 strains); experiment: Broth microdilution MIC, probiotic bacteria as a group (mean or range over strains); conditions: mean of 9 strains; >512 replaced with 1024; read-out: x¯ -PB ± SD: mean MIC for probiotic bacteria
[23] = tested on: Bacillus cereus (ATCC 14579); experiment: Broth microdilution MIC, B. cereus; conditions: ATCC14579, growth inhibited by ≥80%, median/mode, read-out: MIC
[24] = tested on: Yersinia enterocolitica (ATCC 9610); experiment: Broth microdilution MIC, Y. enterocolitica; conditions: ATCC9610, growth inhibited by ≥80%, read-out: MIC
[25] = tested on: diarrheagenic bacteria (12 strains); experiment: microbe, parasite or virus in culture
[26] = tested on: FHs 74 Int (ATCC CCL 241) intestinal normal cells; experiment: MTT cytotoxicity assay, FHs 74 Int; conditions: FHs74Int, 72 h, FHs 74 Int (intestinal normal cells), MTT; for IC50: read-out: IC50 ± SD; for IC80: read-out: IC80 ± SD (80% inhibitory concentration of proliferation)
[27] = tested on: Bacteroides fragilis (ATCC 25285); experiment: Broth microdilution MIC, B. fragilis; conditions: ATCC25285, growth inhibited by ≥80%, read-out: MIC
[28] = mean of 12 strains, >512 replaced with 1024, read-out: x¯ -DB ± SD: mean MIC for diarrheagenic bacteria

Row | SMILES | MIC [1] | MIC [2] | MIC [3] | MIC [4] | MIC [5] | IC80 [6] | MIC [8] | MIC [9] | MIC [10] | MIC [11] | IC50 [12] | IC80 [12] | MIC [13] | MIC [14] | MIC [15] | MIC [16] | MIC [17] | IC50 [18] | IC80 [18] | MIC [19] | also measured
1 | Oc1c(Cl)cc(Cl)c2cccnc12 [CLX, 5,7-dichloroquinolin-8-ol] | 16 µg/mL (≈ 74.7 µM) | 512 µg/mL (≈ 2390 µM) | 128 µg/mL (≈ 598 µM) | > 512 µg/mL | 128 µg/mL (≈ 598 µM) | 5.4 ± 0.5 µg/mL (≈ 25.2 µM) | 16 µg/mL (≈ 74.7 µM) | 16 µg/mL (≈ 74.7 µM) | 64 µg/mL (≈ 299 µM) | 16 µg/mL (≈ 74.7 µM) | 1.3 ± 0.04 µg/mL (≈ 6.07 µM) | 5.9 ± 0.7 µg/mL (≈ 27.6 µM) | 16 µg/mL (≈ 74.7 µM) | 128 µg/mL (≈ 598 µM) | 64 µg/mL (≈ 299 µM) | 16 µg/mL (≈ 74.7 µM) | 64 µg/mL (≈ 299 µM) | 3.7 ± 0.3 µg/mL (≈ 17.3 µM) | 5 ± 0.7 µg/mL (≈ 23.4 µM) | 64 µg/mL (≈ 299 µM) | IC50 [6]: 2.5 ± 1.2 µg/mL (≈ 11.7 µM); MIC ([7]; growth inhibited by ≥80%): 8 µg/mL (≈ 37.4 µM); MIC [20]: 128 µg/mL (≈ 598 µM); MIC [21]: 32 µg/mL (≈ 149 µM); MIC [22]: 245 ± 306 µg/mL (≈ 1150 µM); MIC [23]: 8 µg/mL (≈ 37.4 µM); MIC [24]: 16 µg/mL (≈ 74.7 µM); MIC [25, 28]: 24 ± 19 µg/mL (≈ 112 µM); IC50 [26]: 0.5 ± 0.02 µg/mL (≈ 2.34 µM); IC80 [26]: 2 ± 0.1 µg/mL (≈ 9.34 µM); MIC [27]: 32 µg/mL (≈ 149 µM)
2 | O=[N+]([O-])c1ccc(O)c2ncccc12 [NXL, 5-nitroquinolin-8-ol] | 4 µg/mL (≈ 21 µM) | 32 µg/mL (≈ 168 µM) | 32 µg/mL (≈ 168 µM) | 16 µg/mL (≈ 84.1 µM) | 16 µg/mL (≈ 84.1 µM) | 4.4 ± 0.7 µg/mL (≈ 23.1 µM) | 4 µg/mL (≈ 21 µM) | 8 µg/mL (≈ 42.1 µM) | 16 µg/mL (≈ 84.1 µM) | 32 µg/mL (≈ 168 µM) | 1.1 ± 0.03 µg/mL (≈ 5.78 µM) | 5 ± 1.5 µg/mL (≈ 26.3 µM) | 16 µg/mL (≈ 84.1 µM) | 16 µg/mL (≈ 84.1 µM) | 32 µg/mL (≈ 168 µM) | 2 µg/mL (≈ 10.5 µM) | 32 µg/mL (≈ 168 µM) | 2.6 ± 0.3 µg/mL (≈ 13.7 µM) | 3.7 ± 0.4 µg/mL (≈ 19.5 µM) | 16 µg/mL (≈ 84.1 µM) | IC50 [6]: 1.8 ± 0.8 µg/mL (≈ 9.47 µM); MIC ([7]; […]): 2 µg/mL (≈ 10.5 µM); MIC [20]: 16 µg/mL (≈ 84.1 µM); MIC [21]: 16 µg/mL (≈ 84.1 µM); MIC [22]: 20 ± 9 µg/mL (≈ 105 µM); MIC [23]: 4 µg/mL (≈ 21 µM); MIC [24]: 8 µg/mL (≈ 42.1 µM); MIC ([25]; B. cereus, clostridial species, E. coli, and S. flexneri, read-out: MICs): 2 to 4 µg/mL (≈ 10.5 to 21 µM); MIC [25, 28]: 12 ± 10 µg/mL (≈ 63.1 µM); IC50 [26]: 0.4 ± 0.05 µg/mL (≈ 2.1 µM); IC80 [26]: 0.8 ± 0.05 µg/mL (≈ 4.21 µM); MIC [27]: 4 µg/mL (≈ 21 µM)
3 | O=C(O)c1ccccc1O [SA, salicylic acid] | > 512 µg/mL | 128 µg/mL (≈ 927 µM) | 512 µg/mL (≈ 3710 µM) | > 512 µg/mL | 512 µg/mL (≈ 3710 µM) | > 512 µg/mL | > 512 µg/mL | > 512 µg/mL | 512 µg/mL (≈ 3710 µM) | > 512 µg/mL | > 512 µg/mL | > 512 µg/mL | > 512 µg/mL | > 512 µg/mL | > 512 µg/mL | > 512 µg/mL | > 512 µg/mL | > 512 µg/mL | > 512 µg/mL | > 512 µg/mL | x¯ -CC ± SD: mean IC50 for intestinal cancer cells [6]: - (Not active (MIC/IC50/80 > 512 μg/mL, the value 1024 μg/mL was used for average calculation)); x¯ -CC ± SD: mean IC50 for intestinal cancer cells ([6]; listed as salicylic acid): ≥ 253.6 ± 208 µg/mL; MIC ([7]; […]): 256 µg/mL (≈ 1850 µM); MIC [20]: 512 µg/mL (≈ 3710 µM); MIC [21]: > 512 µg/mL; MIC [22]: 597 ± 336 µg/mL (≈ 4320 µM); MIC [23]: > 512 µg/mL; MIC [24]: > 512 µg/mL; MIC [25, 28]: 960 ± 212 µg/mL (≈ 6950 µM); IC50 [26]: 73.2 ± 4.6 µg/mL (≈ 530 µM); IC80 [26]: 207 ± 69 µg/mL (≈ 1500 µM); MIC [27]: 128 µg/mL (≈ 927 µM)
